Measurements published in US11167012B2, “Peptide inhibition of CCR3-mediated diseases or conditions” (The Board of Trustees of the University of Illinois, priority 2015, dated 2021).
Where a SMILES comes first, the peptide text is derived from it. The star is where a group is joined. X1 = NC(=O)CCOCCOCCOCCOCCOCCOCCOCCOCCOCCOCCOCCOCCOCCOCCOCCOCCOCCOCCOCCOCCOCCOCCOCCOCCOCCOCCOCCOCCN*

Assays:
CCR3 = molecular target: T1, CCR3 (Homo sapiens, UniProt P51677); test: Chemotaxis assay (Transwell), blood eosinophils; type: cell-based; design: host or cells: AML14.3D10-CCR3 (eosinophilic myelocytic cell line, kept under G418); conditions: for IC90: blood eosinophils, 4 hours
T1 sequence (P51677 1-355): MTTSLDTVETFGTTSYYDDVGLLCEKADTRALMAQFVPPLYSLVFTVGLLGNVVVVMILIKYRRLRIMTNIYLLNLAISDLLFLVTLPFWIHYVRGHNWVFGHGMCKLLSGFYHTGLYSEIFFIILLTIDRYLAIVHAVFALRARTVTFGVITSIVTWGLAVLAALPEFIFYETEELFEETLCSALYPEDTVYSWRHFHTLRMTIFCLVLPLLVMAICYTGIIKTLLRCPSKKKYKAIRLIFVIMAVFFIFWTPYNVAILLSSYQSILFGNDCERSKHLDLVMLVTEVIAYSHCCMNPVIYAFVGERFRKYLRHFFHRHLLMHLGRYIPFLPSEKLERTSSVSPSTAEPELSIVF
Text: Blood eosinophils were purified from anti-coagulated blood drawn from mild allergic asthmatic subjects. Peripheral blood was subjected to density gradient centrifugation over FICOLL-PAQUE® Plus (GE Healthcare, Pittsburgh, Pa.) media to obtain a pellet containing erythrocytes and granulocytes. After erythrocyte lysis via hypotonic shock, eosinophils were purified by negative selection using a cocktail of antibody-conjugated magnetic beads against non-eosinophils (Miltenyi Biotec, Auburn, Calif.). The eosinophils were resuspended in X-VIVO 10 without phenol red. The purity and viability of the eosinophils obtained was routinely >97% as assessed by Hema III and trypan blue staining, respectively.
Cell migration was determined using a 96-well TRANSWELL® system (Corning, Tewksbury, Mass.). Briefly, 200 μl chemoattractant or control medium was added to the lower chamber while 100 μl cells were added to the upper chamber. The two chambers were separated by a polycarbonate filter with 5 μm pores. For AML14.3D10-CCR3 cells, 2×10^5 cells/well were resuspended in RPMI-1640+0.1% BSA and allowed to migrate for 4 hours at 37° C. […] Migrated cells were counted using a Beckman QUANTA SC flow cytometer. All experiments were performed in duplicate. Checkerboard analysis was done to distinguish chemotaxis from chemokinesis.
Primary eosinophils and the stable CCR3+eosinophilic myelocytic cell line, AML14.3D10-CCR3 (Daugherty, et al. (1996) J. Exp. Med. 183:2349-2354) undergo CCR3-mediated chemotaxis induced by multiple chemokines including eotaxin/CCL11, RANTES/CCL5, MCP-4/CCL13, and MEC/CCL28 (Daugherty, et al. (1996) J. Exp. Med. 183:2349-2354; Pan, et al. (2000) J. Immunol. 165:2943-2949). […] In addition, R3-2-1 inhibits chemotaxis of both AML14.3D10-CCR3 and blood eosinophils induced by CCL11/Eotaxin-1, CCL24/Eotaxin-2, and CCL26/Eotaxin-3 in a dose-dependent fashion (Table 3).

Gαi = Gαi activation, pull-down of GTP-bound Gαi in AML14.3D10-CCR3 cells; type: cell-based, human; conditions: 10 μM, 8 nM CCL11
Protocol: GTP-bound Gal was detected using a commercial Gαi assay kit (Abcam, Cambridge, Mass.) with modifications. Briefly, AML14.3D10-CCR3 cells were serum-starved for 16 hours before being pretreated with […] pertussis toxin for 2 hours, 10 μM R3-2-1 for 30 minutes, or with vehicle control. Pretreated cells were then stimulated with 8 nM CCL11 or medium for 1 minute. The reaction was stopped by adding ice cold PBS. Ten (10) million cells were used for each condition. Washed cells were lysed with 1× lysis buffer following manufacturer instructions. For pull-down of active Gαi, mouse anti-GTP bound Gαi antibody was conjugated to DYNABEADS Protein G (Life Technologies, Carlsbad, Calif.) for 15 minutes at room temperature. Conjugated beads were washed 3 times with Tris-buffered saline+TWEEN® polysorbate (TBST) and incubated with cell lysates for 20 minutes at room temperature. After washing with TBST, bound proteins were eluted by boiling the beads in 2×SDS buffer for 5 minutes. Eluates were resolved by SDS-PAGE and immunoblotted using a polyclonal rabbit anti-total Gαi antibody (Cell Signaling Technology).

- IC50 for inhibition of chemotaxis, in words (CCR3; CCL11-, CCL24-, CCL26-induced chemotaxis, summary of Table 3): low nanomolar range
- IC90 (CCR3; chemotaxis to CCL11/Eotaxin-1 (12 nM)): 760 ± 100 nM
- IC90 (CCR3; chemotaxis to CCL24/Eotaxin-2 (20 nM)): 730 ± 100 nM
- IC90 (CCR3; chemotaxis to CCL26/Eotaxin-3 (100 nM)): 1100 ± 150 nM
SMILES: CC[C@H](C)[C@H](NC(=O)[C@H](Cc1c[nH]c2ccccc12)NC(=O)[C@H](Cc1ccccc1)NC(=O)[C@@H]1CCCN1C(=O)[C@H](CC(C)C)NC(=O)[C@@H](NC(=O)[C@@H](NC(=O)[C@H](CC(C)C)NC(=O)[C@H](Cc1ccccc1)NC(=O)[C@H](CC(C)C)NC(=O)[C@@H](N)CC(C)C)C(C)C)[C@@H](C)O)C(=O)N[C@@H](Cc1c[nH]cn1)C(=O)N[C@@H](Cc1ccc(O)cc1)C(=O)N[C@H](C(=O)N[C@@H](CCCNC(=N)N)C(=O)NCC(=O)N[C@@H](Cc1c[nH]cn1)C(=O)N[C@@H](CC(N)=O)C(=O)N[C@@H](Cc1c[nH]c2ccccc12)C(=O)N[C@H](C(=O)N[C@@H](Cc1ccccc1)C(=O)NCC(=O)N[C@@H](Cc1c[nH]cn1)C(=O)N[C@@H](CC(=O)O)C(=O)N[C@@H](CC(=O)O)C(=O)N[C@@H](CC(=O)O)C(=O)NCCOCCOCCOCCOCCOCCOCCOCCOCCOCCOCCOCCOCCOCCOCCOCCOCCOCCOCCOCCOCCOCCOCCOCCOCCOCCOCCOCCOCCC(N)=O)C(C)C)C(C)C [Peptide R3-2-1] (H-LLFLVTLPFWIHYVRGHNWVFGHDDD-X1; N-terminus assumed)
- inhibition of chemotaxis of blood eosinophils (CCR3; 2, 10 or 50 μM): similarly able to inhibit chemotaxis of blood eosinophils
- activation of Gαi (GTP-bound form) (Gαi): inhibit the activation of Gαi
